US20100152150A1, “THE APPLICATION OF MARINE STEROID IN PREPARING THE MEDICINE OF TREATING NEURONS DAMAGING” (priority 2006, published 2010)

Key:
[1] = system: rat cerebellar granule neurons (CGNs); assay: Repolarization (low potassium, LK) induced death of in vitro cultured cerebellar granule neurons; type: cell-based
Experimental: The methods for rat CGNs cell culture, cellular morphologic observation and neuronal viability measurement were the same as above. Then check the in vitro cultured cerebellar granule neurons death through agarose gel electrophoresis according to reference:
(1) CGNs in […] dishes were inoculated.
(2) On day 8, 24 h after adding various medicines, the medium was removed, the cells were rinsed twice with PBS.
(3) The collected cells were spun down with a low temperature high speed centrifuge (Biofuge22R, Heraeus, Germany) at 5000 rpm, 4° for 5 min.
(4) the cell pellet was resuspended with 600 μl buffer containing 10 mmol/L Tris-HCl, 10 mmol/L EDTA and 2 g/L Triton X-100 (pH 7.5) and incubated for 15 min.
(6) The supernatant was extracted once with equal volume of phenol and spun down.
(7) The supernatant was extracted once with equal volume of phenol-chloroform (1:1), spun down.
(8) The supernatant was taken, 300 mmol/L Sodium Acetate and equal volume of isopropanol were added and precipitated for overnight.
(9) The pellet was spun down and rinsed 2-3 times with 70% ethanol.
(10) After drying, some TE (Tris 10 mmol L^−1, EDTA 1.0 mmol L^−1, pH 7.4, and 0.6 g·L^−1 RNase A) were added and incubated at 37° for 30 min.
(11) The samples were analyzed with 20 g/L agarose gel electrophoresis for 1 h.
(12) Dyed with ethidium bromide and photographed under UV light.

[2] = system: SD rats with permanent middle cerebral artery occlusion (MCAO); assay: MCAO induced rat cerebral ischemia model; type: in vivo
Experimental: Method: Preparation of Rat Middle Cerebral Artery Occlusion (MCAO) Model
25 healthy male SD rats were divided into 3 groups randomly: YC-1 group (n=11): 10 min, 6 h, 24 h and 7 d after occluding the middle cerebral artery, 12 mg/Kg YC-1 was continuously injected intraperitoneally. DMSO group (n=11): same volume of DMSO (1 ml/Kg) was injected in the same way. Sham group (n=3): just very short intraluminal thread was inserted and didn't occlude the MCA.
The following method was a modification of Zea Longa's method (Longa E Z, Weinstein P R, Carlson S, Cummins R. Reversible middle cerebral artery occlusion without craniectomy in rats. Stroke, 1989, 20: 84-91).
(1) The rats drinked freely but fasted one night before the operation.
(2) 10 min before anesthesia, atropine sulfate (0.5 mg/Kg) was intraperitoneally (ip) injected.
(3) Narcotized the rat with ip injected 10% chloral hydrate, 3.5 ml anesthetic per Kg rat; The areflexia of hindlimb retraction and corneal were used as anesthesia index. […]
(7) Rectum temperature was measured by using Meikangti electronic temperature measure instrument the whole process and it was strictly controlled at 36.5-37.5°. […]

[3] = system: New Zealand white rabbits with spinal cord ischemia; assay: Abdominal aorta clipping induced rabbit spinal cord ischemia model; type: in vivo; details: 8 mg/Kg intravenous 30 min before ischemia
Experimental: Method: Preparation of spinal cord ischemia model.
24 male New Zealand white rabbits were divided evenly into 3 groups (n=8):
YC-1 group: 30 min before spinal cord ischemia, 8 mg/Kg YC-1 was intravenous injected through the rabbit's ear. DMSO group: same volume of DMSO (1 ml/Kg) was injected in the same way.
Sham group: the abdominal aorta was exposed but wasn't clipped.
Referring to Johnson etc, the model was prepared as follows:
(1) The rabbits drinked freely but fasted one night before the operation.
(2) The rabbit was anesthetized by injecting 3% sodium pentobarbital (30 mg/Kg) by ear intravenous. On the other side of the ear a vein-detaining needle (24 G) was set for medicine and other fluid infusion.
(3) An artery-detaining needle (24 G) was set in the right ear artery for monitoring the proximal arterial pressure and blood sampling during the operation.
(4) An artery-detaining needle (24 G) was set in a femoral artery for monitoring the distal arterial pressure during the operation.
(5) The rabbit was supinely fixed and incised at the median abdomen; the abdominal aorta was exposed.
(6) Injected heparin (150 U/Kg) through the vein-detaining needle, then the abdominal aorta was clipped at the 0.5-1.0 cm spot below origin of the left renal artery to cause spinal cord ischemia.
(7) Once the abdominal aorta was blocked, the distal arterial pressure decreased immediately and the femoral arterial pulsation disappeared.
(8) The clip was removed 20 min after ischemia and the abdomen was sutured.
(9) Then intramuscularly injected 40,000 U gentamicin, the rabbit was returned back to cage and observed for 48 h.
(10) The proximal arterial pressure, distal arterial pressure and heart rate (Spacelab, US) were continuously monitored during the operation. Rectum temperature was maintained at 38.5±0.5° by using heating pad and roasting lamp.
(11) Blood gas (AVL-2, Switzerland) and glucose (One Touch II, USA) were monitored by ear artery blood sampling 10 min before ischemia, 10 min after ischemia and 10 min after reperfusion.

[4] = system: rat cerebellar granule neurons (CGNs); assay: Hypoxia/reoxygenation (H/R) induced death of in vitro cultured cerebellar granule neurons; type: cell-based; details: for CGNs morphology under inverted fluorescence microscope: pre-treated 3 h with 10 μM MK801 or 12 μM YC-1 or 12 μM YC-2, then 3 h hypoxia and 24 h reoxygenation
Experimental: 1) Culture of Rat Cerebellar Granule Neurons (CGNs)
According to Yan, etc, the neurons were prepared as follows:
(1) A clean 7-8 d SD rat weighing about 15-20 g was taken and the cerebella was separated under sterile condition.
(2) The meninges and vessels were gotten rid of in Kreb's anatomy solution (Ca^2+ and Mg^2+ free).
(3) The cerebella was sheared into pieces of 1 mm^3 with ophthalmic scissors.
(4) Digested in 0.25 g/L trypsin solution for 15 min at 37.
(5) The digestion was stopped with solution containing 0.5 g/L trypsin inhibitor and 0.05 g/L Dnase I and pipetted up and down to get single cell suspension.
(6) The single cell suspension was centrifuged at 200 g for 5 min, the precipitation was rinsed once with rinse solution.
(7) Span down again at 200 g for 5 min, the supernatant was discarded.
(8) The cell pellet was diluted to cell density of 1.5-1.8×10^6 cells/ml with BME medium containing 10% (v/v) FBA and 25 mM KCl.
(9) They were inoculated into cell culture dishes pre-coated with polylysine and incubated at 370 incubator with 5% CO2.
(10) Twenty-four hours after inoculation, 10 μmol/L Ara-C was added to inhibit non-neuron cells' growth and proliferation and to make the purity of CGNs above 95%.
(11) Glucose was added to 5 mM on day 7 incubation to supplement energy needed by cell metabolism.
(12) The experiment on day 8.
2). Establishment of CGNs Hypoxia/Reoxygenation (H/R) Injury Model
Referred to Seko (Seko Y, To be K, Ueki K, et al. Hypoxia and hypoxia/reoxygenation activate Raf-1, mitogen-activated protein kinase kinase, mitogen-activated protein kinases, and S6 kinase in cultured rat cardiac myocytes. Circ Res. 1996 January; 78(1):82-90) etc for the establishment method:
(1) On day 8, the treated CGNs were put in airtight box with oxygen consumption reagent and indicator and incubated at 37° for 3 h.
(2) The cells were transferred to 370 incubator with 5% CO2 for reoxygenation treatment.
(3). Cell morphological observation and neuron viability measurement
The following were done referring to Yan (Yan G M, Irwin R P, Lin S Z, et al. Diphenylhydantoin induces apoptotic cell death of cultured rat cerebellar granule neurons. J Pharmacol Exp Ther, 1995, 274(2): 983-8) et al.:
(1) CGNs were cultured in 35 mm dishes, on day 8, the medium was removed after various factors treatment, the cells were rinsed twice with 4 PBS containing Ca^2+ and Mg^2+.
(2) The cells were fixed with 40 g/L paraformaldehyde (40, dissolved in PBS) for 10 min.
(3) The fixation solution was removed, the cells were rinsed twice with distilled water, air dried at 4°.
(4) The cell morphological change was observed and randomly photographed under inverted fluorescence microscope (Olympus).

[5] = system: rat cerebellar granule neurons (CGNs); assay: Glutamic acid (Glu) induced death of in vitro cultured cerebellar granule neurons; type: cell-based
Excerpt: (1) Isolatation and primary culture of rat CGNs.
(2) Morphology observation of neuron cell body and processes under phase contrast microscopy.
(3) Analysis of neuronal metabolic activity and viability using fluorescein diacetate (FDA) staining.

SMILES | CGNs morphology (cell bodies and processes) ([1]; 12 μM added 3 h before and at change to 5 mM KCl serum free medium, 24 h) | CGNs survived (FDA staining) ([1]; 12 μM added 3 h before and at change to 5 mM KCl serum free medium, 24 h, low potassium alone 40.2±14.04%) | DNA fragments produced from LK induced CGNs apoptosis (agarose gel electrophoresis) ([1]; FIG. 18) | brain tissue colour and morphology by visual inspection ([2]; rat MCAO, 12 mg/Kg intraperitoneally, DMSO group showed obvious pallor and swelling) | infarct size (TTC dye) ([2]; rat permanent MCAO, 12 mg/Kg YC-1 intraperitoneally at 10 min, 6 h, 24 h and 7 d after occlusion, DMSO group 62±8%) | rabbits able to stand (hindlimb function) ([3]; rabbit spinal cord ischemia 20 min, n=8, no rabbit in DMSO group could stand) | neurological function score ([3]; rabbit spinal cord ischemia, each observation time point, versus DMSO group, p<0.05) | lumbar spinal cord injury (histopathological examination) ([3]; rabbit spinal cord ischemia, versus DMSO group) | number of normal spinal cord anterior horn neurons ([3]; rabbit spinal cord ischemia, versus DMSO group, p<0.01) | neuronal viability (FDA dye) ([4]; 10 μM MK801 or 12 μM YC-1 or 12 μM YC-2, then H/R, H/R alone 16.56±3.21%) | nuclear morphology (Hoechst33258 dye) ([4]; 12 μM, then H/R treatment) | CGNs morphology under inverted fluorescence microscope [4] | Glu induced CGNs apoptosis (phase contrast microscopy) ([5]; 12 μM added 1 h before 150 μM Glu, observed 24 h later) | CGNs' viability (FDA staining) ([5]; 12 μM, 150 μM Glu 24 h, Glu control group 29.5±8.23%) | viability at 10 µM ([4]; Rattus norvegicus, Neuron, 10 μM MK801 or 12 μM YC-1 or 12 μM YC-2, then H/R, H/R alone 16.56±3.21%, read-out: neuronal viability (FDA dye))
C=C(CC[C@@H](C)[C@H]1CC[C@H]2[C@@H]3C[C@@H](O)[C@@]4(O)C[C@@H](O)CC[C@]4(CO)[C@H]3CC[C@]12C)C(C)C [YC-1, 24-methylene-cholest-3β,5α,6β,19-tetrol] | most CGNs kept intact cell bodies and processes | 94.3±14.02% | can reduce DNA fragments | no obvious pallor and swelling | 32±11% | Six rabbits in the CPA (YC-1) group could stand | obviously higher than that in DMSO group | obviously relieved | increased evidently | 84.29±1.26% | Most CGNs showed normal nuclear morphology and even chromatin distribution | Most CGNs cell body kept intact, plump and lucent | obviously inhibited Glu induced CGNs apoptosis | 92.6±2.59% | 
C[C@]12N[C@H](Cc3ccccc31)c1ccccc12 [MK801, reference compound] |  |  |  |  |  |  |  |  |  |  |  | Most CGNs cell body kept intact, plump and lucent |  |  | 86.7 ± 3.21%
